Assay results reported in US9079866B2, “Flap modulators” (JANSSEN PHARMACEUTICA NV, priority 2013, dated 2015).

What follows are molecules tested against human FLAP (Homo sapiens (Human), UniProt P20292) (assay: FLAP binding assay (HTRF format)). Settings: wild type FLAP, HTRF format.
Experimental: The ability of the compounds of the present invention to treat a FLAP-mediated disease and/or disorder, or associated symptoms or complications thereof, was determined using the following procedures. Binding assay data represent the average value obtained from two different assay plates, with samples run in duplicate on each plate. Human whole blood assay data represent a single replicate on an assay plate using whole blood from at least one healthy donor.
Data are expressed as a HTRF ratio.

human FLAP, sequence (P20292 whole entry): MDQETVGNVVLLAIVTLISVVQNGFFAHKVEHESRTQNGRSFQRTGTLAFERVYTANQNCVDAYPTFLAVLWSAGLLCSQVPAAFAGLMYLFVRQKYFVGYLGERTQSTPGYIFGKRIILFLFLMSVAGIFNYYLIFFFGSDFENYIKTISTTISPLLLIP

| SMILES | Ki [nM] |
| --- | --- |
| CC(C)(C)NS(=O)(=O)c1ccccc1-c1ccc(-c2ncc3cc[nH]c3n2)c(F)c1 [Example 418, N-tert-Butyl-3′-fluoro-4′-(7H-pyrrolo[2,3-d]pyrimidin-2-yl)biphenyl-2-sulfonamide] | 1250 |
| CC(=O)Nc1ccccc1-c1ccc(-c2cnc(N)cn2)c(F)c1 [Example 459, N-[4′-(5-Aminopyrazin-2-yl)-3′-fluorobiphenyl-2-yl]acetamide] | > 10000 |
| NC(=O)Nc1ccccc1-c1ccc(-c2cnc(N)cn2)c(F)c1 [Example 460, 1-[4′-(5-Aminopyrazin-2-yl)-3′-fluorobiphenyl-2-yl]u rea] | > 10000 |
| Cc1c(-c2ccccc2NS(C)(=O)=O)ccc(-c2cnc(N)cn2)c1F [Example 463, N-[4′-(5-Aminopyrazin-2-yl)-3′-fluoro-2′-methylbiphenyl-2-yl]methanesulfonamide] | 982 |
| Nc1cnc(-c2ccc(-c3ccccc3F)cc2F)cn1 [Example 468, 5-(2′,3-Difluorobiphenyl-4-yl)pyrazin-2-amine] | 620 |
| Cc1ccccc1-c1ccc(-c2cnc(N)cn2)c(F)c1 [Example 470, 5-(3-Fluoro-2′-methylbiphenyl-4-yl)pyrazin-2-amine] | 620 |
| Nc1cnc(-c2ccc(-c3ccccc3OC(F)(F)F)cc2F)cn1 [Example 475, 5-[3-Fluoro-2′-(trifluoromethoxy)biphenyl-4-yl]pyrazin-2-amine] | 750 |
| Nc1cnc(-c2ccc(-c3c(F)cccc3F)cc2F)cn1 [Example 478, 5-(2′,3,6′-Trifluorobiphenyl-4-yl)pyrazin-2-amine] | 250 |
| CCc1ccccc1-c1ccc(-c2cnc(N)cn2)c(F)c1 [Example 480, 5-(2′-Ethyl-3-fluorobiphenyl-4-yl)pyrazin-2-amine] | 354 |
| CC(C)c1ccccc1-c1ccc(-c2cnc(N)cn2)c(F)c1 [Example 482, 5-[3-Fluoro-2′-(1-methylethyl)biphenyl-4-yl]pyrazin-2-amine] | 120 |
| Nc1cnc(-c2ccc(-c3ccccc3C(=O)O)cc2F)cn1 [Example 485, 4′-(5-Aminopyrazin-2-yl)-3′-fluorobiphenyl-2-carboxylic acid] | > 10000 |
| NC(=O)c1ccccc1-c1ccc(-c2cnc(N)cn2)c(F)c1 [Example 486, 4′-(5-Aminopyrazin-2-yl)-3′-fluorobiphenyl-2-carboxamide] | 2500 |
| Nc1ncc(-c2ccc(-c3ccccc3C(=O)N3CCOCC3)cc2F)cn1 [Example 499, 5-[3-Fluoro-2′-(morpholin-4-ylcarbonyl)biphenyl-4-yl]pyrimidin-2-amine] | 433 |
| C[C@H](NC(=O)c1ccccc1-c1ccc(-c2cnc(N)nc2)c(F)c1)C(F)(F)F [Example 504, 4′-(2-Aminopyrimidin-5-yl)-3′-fluoro-N-[(1S)-2,2,2-trifluoro-1-methylethyl]biphenyl-2-carboxamide] | 768 |
| Nc1cnc(-c2ccc(-c3ccccc3C(=O)N3CCNCC3)cc2F)cn1 [Example 506, 5-[3-Fluoro-2′-(piperazin-1-ylcarbonyl)biphenyl-4-yl]pyrazin-2-amine] | > 10000 |
| CC(=O)N1CCN(C(=O)c2ccccc2-c2ccc(-c3cnc(N)cn3)c(F)c2)CC1 [Example 507, 5-{2′-[(4-Acetylpiperazin-1-yl)carbonyl]-3-fluorobiphenyl-4-yl}pyrazin-2-amine] | > 10000 |
| Nc1cnc(-c2ccc(-c3ccccc3C(=O)NC3CCCCC3)cc2F)cn1 [Example 508, 4′-(5-Aminopyrazin-2-yl)-N-cyclohexyl-3′-fluorobiphenyl-2-carboxamide] | 790 |
| CNC(=O)c1ccccc1-c1ccc(-c2cnc(N)cn2)c(F)c1 [Example 510, 4′-(5-Aminopyrazin-2-yl)-3′-fluoro-N-methylbiphenyl-2-carboxamide] | 1940 |
| C[C@@H](CO)NC(=O)c1ccccc1-c1ccc(-c2cnc(N)cn2)c(F)c1 [Example 513, 4′-(5-Aminopyrazin-2-yl)-3′-fluoro-N-[(1S)-2-hydroxy-1-methylethyl]biphenyl-2-carboxamide] | > 10000 |
| Nc1cnc(-c2ccc(-c3ccccc3C(=O)N3CCC(N)CC3)cc2F)cn1 [Example 515, 5-{2′-[(4-Aminopiperidin-1-yl)carbonyl]-3-fluorobiphenyl-4-yl}pyrazin-2-amine] | > 10000 |
| Nc1ncc(-c2ccc(-c3ccccc3C(=O)N3CCS(=O)(=O)CC3)cc2F)cn1 [Example 516, 5-{2′-[(1,1-Dioxidothiomorpholin-4-yl)carbonyl]-3-fluorobiphenyl-4-yl}pyrimidin-2-amine] | > 10000 |
| C[C@@H](CO)NC(=O)c1ccccc1-c1ccc(-c2cnc(N)nc2)c(F)c1 [Example 517, 4′-(2-Aminopyrimidin-5-yl)-3′-fluoro-N-[(1S)-2-hydroxy-1-methylethyl]biphenyl-2-carboxamide] | > 10000 |

| SMILES | Ki [nM] |
| --- | --- |
| C[C@@H](NC(=O)c1ccccc1-c1ccc(-c2cnc(N)nc2)c(F)c1)C(F)(F)F [Example 518, 4′-(2-Aminopyrimidin-5-yl)-3′-fluoro-N-[(1R)-2,2,2-trifluoro-1-methylethyl]biphenyl-2-carboxamide] | > 10000 |
| Nc1cnc(-c2ccc(-c3ccccc3C(=O)N3CCNC(=O)C3)cc2F)cn1 [Example 519, 4-{[4′-(5-Aminopyrazin-2-yl)-3′-fluorobiphenyl-2-yl]carbonyl}piperazin-2-one] | > 10000 |
| Nc1ncc(-c2ccc(-c3ccccc3C(=O)N3CCNC(=O)C3)cc2F)cn1 [Example 520, 4-{[4′-(2-Aminopyrimidin-5-yl)-3′-fluorobiphenyl-2-yl]carbonyl}piperazin-2-one] | > 10000 |
| Nc1ncc(-c2ccc(-c3ccccc3Oc3ncccn3)cn2)cn1 [Example 566, 5-{5-[2-(Pyrimidin-2-yloxy)phenyl]pyridin-2-yl}pyrimidin-2-amine] | > 10000 |
| Nc1ncc(-c2ccc(-c3ccccc3Oc3ccnc(N)n3)cn2)cn1 [Example 567, 4-{2-[6-(2-Aminopyrimidin-5-yl)pyridin-3-yl]phenoxy}pyrimidin-2-amine] | 1140 |
| Nc1ccnc(Oc2ccccc2-c2ccc(-c3cnc(N)nc3)nc2)n1 [Example 568, 5-(5-{2-[(4-Aminopyrimidin-2-yl)oxy]phenyl}pyridin-2-yl)pyrimidin-2-amine] | 2500 |
| CN(C)S(=O)(=O)c1ccccc1-c1ccc(-c2cnc(N)cn2)cc1 [Example 572, 4′-(5-Aminopyrazin-2-yl)-N,N-dimethylbiphenyl-2-sulfonamide] | 370 |
| Nc1cnc(-c2ccc(-c3ccccc3S(=O)(=O)N3CCOCC3)cc2)cn1 [Example 573, 5-[2′-(Morpholin-4-ylsulfonyl)biphenyl-4-yl]pyrazin-2-amine] | 114 |
| CN(C)S(=O)(=O)c1ccccc1-c1ccc(-c2cnc(N)cn2)cc1F [Example 575, 4′-(5-Aminopyrazin-2-yl)-2′-fluoro-N,N-dimethylbiphenyl-2-sulfonamide] | 750 |
| CC(C)(C)NS(=O)(=O)c1ccccc1-c1ccc(-c2cn3cc(C(N)=O)ccc3n2)c(F)c1 [Example 582, 2-[2′-(tert-Butylsulfamoyl)-3-fluorobiphenyl-4-yl]imidazo[1,2-a]pyridine-6-carboxamide] | > 10000 |
| CC(C)(C)NS(=O)(=O)c1ccccc1-c1ccc(-c2cn3c(C#N)cccc3n2)c(F)c1 [Example 584, N-tert-Butyl-4′-(5-cyanoimidazo[1,2-a]pyridin-2-yl)-3′-fluorobiphenyl-2-sulfonamide] | > 10000 |
| CC(C)(C)NS(=O)(=O)c1ccccc1-c1ccc(-c2cn3cc(C#N)ccc3n2)c(F)c1 [Example 585, N-tert-Butyl-4′-(6-cyanoimidazo[1,2-a]pyridin-2-yl)-3′-fluorobiphenyl-2-sulfonamide] | > 10000 |
| CC(C)(C)NS(=O)(=O)c1ccccc1-c1ccc(-c2cn3cc(C(F)(F)F)ccc3n2)c(F)c1 [Example 586, N-tert-Butyl-3′-fluoro-4′-[6-(trifluoromethyl)imidazo[1,2-a]pyridin-2-yl]biphenyl-2-sulfonamide] | > 10000 |
| CCOC(=O)c1cccc2nc(-c3ccc(-c4ccccc4S(=O)(=O)NC(C)(C)C)cc3F)cn12 [Example 587, Ethyl 2-[2′-(tert-butylsulfamoyl)-3-fluorobiphenyl-4-yl]imidazo[1,2-a]pyridine-5-carboxylate] | > 10000 |
| CS(=O)(=O)c1ccccc1-c1ccc(-c2cnc(N)cn2)cc1 [Example 589, 5-[2′-(Methylsulfonyl)biphenyl-4-yl]pyrazin-2-amine] | > 10000 |
| Cc1cc(-c2ccccc2S(C)(=O)=O)ccc1-c1cnc(N)cn1 [Example 590, 5-[3-Methyl-2′-(methylsulfonyl)biphenyl-4-yl]pyrazin-2-amine] | > 10000 |
| Cc1cc(-c2ccccc2S(=O)(=O)N(C)C)ccc1-c1cnc(N)cn1 [Example 591, 4′-(5-Aminopyrazin-2-yl)-N,N,3′-trimethylbiphenyl-2-sulfonamide] | ~2490 |
| Nc1cnc(-c2ccc(-c3ccccc3S(N)(=O)=O)cc2O)cn1 [Example 592, 4′-(5-Aminopyrazin-2-yl)-3′-hydroxybiphenyl-2-sulfonamide] | > 10000 |
| CS(=O)(=O)Nc1ccccc1-c1ccc(-c2cnc(N)cn2)cc1 [Example 593, N-[4′-(5-Aminopyrazin-2-yl)biphenyl-2-yl]methanesulfonamide] | > 10000 |
| Nc1cnc(-c2ccc(-c3ccccc3S(N)(=O)=O)cc2)cn1 [Example 594, 4′-(5-Aminopyrazin-2-yl)biphenyl-2-sulfonamide] | > 10000 |
| CC(C)(C)NS(=O)(=O)c1ccccc1-c1ccc(-c2ccc3c(c2)CC(=O)N3)c(F)c1 [Example 595, N-tert-Butyl-3′-fluoro-4′-(2-oxo-2,3-dihydro-1H-indol-5-yl)biphenyl-2-sulfonamide] | ~2490 |
| CC(C)(C)NS(=O)(=O)c1ccccc1-c1ccc(-c2ccc3[nH]c(=O)[nH]c(=O)c3c2)c(F)c1 [Example 596, N-tert-Butyl-4′-(2,4-dioxo-1,2,3,4-tetrahydroquinazolin-6-yl)-3′-fluorobiphenyl-2-sulfonamide] | > 10000 |
